Laboratory results published in patent US20090036448A1, “PYRIMIDINE DERIVATIVES AND METHODS OF TREATMENT RELATED TO THE USE THEREOF” (TAISHO PHARMECUTICAL CO., LTD., priority 2004, published 2009).

Molecular target: MCH receptor (Homo sapiens, UniProt Q99705)
Assay: Receptor binding assay with Radiolabelled MCH Ligand
Set-up: expressed in transfected cells; host or cells: 293 cells (human kidney, ATCC), transient transfection; crude membranes
Conditions: class by percent of control at 10^-7 M or IC50
Text: In addition to the methods described herein, another means for evaluating a test compound is by determining binding affinities to the MCH receptor. This type of assay generally requires a radiolabelled ligand to the MCH receptor. Absent the use of known ligands for the MCH receptor and radiolabels thereof, compounds of Formula (I) can be labelled with a radioisotope and used in an assay for evaluating the affinity of a test compound to the MCH receptor.
A radiolabelled MCH compound of Formula (I) can be used in a screening assay to identify/evaluate compounds. In general terms, a newly synthesized or identified compound (i.e., test compound) can be evaluated for its ability to reduce binding of the “radiolabelled compound of Formula (I)” to the MCH receptor. Accordingly, the ability to compete with the “radio-labelled compound of Formula (I)” or Radiolabelled MCH Ligand for the binding to the MCH receptor directly correlates to its binding affinity of the test compound to the MCH receptor.
293 cells (human kidney, ATCC), transiently transfected with 10 μg human MCH receptor and 60 μl Lipofectamine (per 15-cm dish), are grown in the dish for 24 hours (75% confluency) with a media change and removed with 10 mL/dish of Hepes-EDTA buffer (20 mM Hepes+10 mM EDTA, pH 7.4). The cells are then centrifuged in a Beckman Coulter centrifuge for 20 minutes, 17,000 rpm (JA-25.50 rotor). Subsequently, the pellet is resuspended in 20 mM Hepes+1 mM EDTA, pH 7.4 and homogenized with a 50-mL Dounce homogenizer and again centrifuged. After removing the supernatant, the pellets can be stored at −80° C., until used in binding assay. When used in the assay, membranes are thawed on ice for 20 minutes and then 10 mL of incubation buffer (20 mM Hepes, 1 mM MgCl2, 100 mM NaCl, pH 7.4) added. The membranes are then vortexed to resuspend the crude membrane pellet and homogenized with a Brinkmann PT-3100 Polytron homogenizer for 15 seconds at setting 6. The concentration of membrane protein is determined using the BRL Bradford protein assay.
For total binding, a total volume of 50 ul of appropriately diluted membranes (diluted in assay buffer containing 50 mM Tris HCl (pH 7.4), 1 mM MgCl2, and 1 mM EDTA; 5-50 ug protein) is added to 96-well polyproylene microtiter plates followed by addition of 100 μl of assay buffer and 50 μl of Radiolabelled MCH Ligand. For nonspecific binding, 50 μl of assay buffer is added instead of 100 μl and an additional 50 μl of 10 uM cold MCH is added before 50 μl of Radiolabelled MCH Ligand is added. Plates are then incubated at room temperature for 60-120 minutes. The binding reaction is terminated by filtering assay plates through a Microplate Devices GF/C Unifilter filtration plate with a Brandell 96-well plate harvester followed by washing with cold 50 mM Tris HCl, pH 7.4 containing 0.9% NaCl. Then, the bottom of the filtration plate are sealed, 50 ul of Optiphase Supermix is added to each well, the top of the plates are sealed, and plates are counted in a Trilux MicroBeta scintillation counter. For compound competition studies, instead of adding 100 μl of assay buffer, 100 μl of appropriately diluted test compound is added to appropriate wells followed by addition of 50 μl of Radiolabelled MCH Ligand.
The test compounds are initially assayed at 1 and 0.1 μM and then at a range of concentrations chosen such that the middle dose would cause about 50% inhibition of a Radiolabelled MCH Ligand binding (i.e., IC50). Specific binding in the absence of test compound (BO) is the difference of total binding (BT) minus non-specific binding (NSB) and similarly specific binding (in the presence of test compound) (B) is the difference of displacement binding (BD) minus non-specific binding (NSB). IC50 is determined from an inhibition response curve, logit-log plot of % B/BO vs. concentration of test compound.
Ki is calculated by the Cheng and Prustoff transformation: […]

Chain of MCH receptor (Q99705 whole entry): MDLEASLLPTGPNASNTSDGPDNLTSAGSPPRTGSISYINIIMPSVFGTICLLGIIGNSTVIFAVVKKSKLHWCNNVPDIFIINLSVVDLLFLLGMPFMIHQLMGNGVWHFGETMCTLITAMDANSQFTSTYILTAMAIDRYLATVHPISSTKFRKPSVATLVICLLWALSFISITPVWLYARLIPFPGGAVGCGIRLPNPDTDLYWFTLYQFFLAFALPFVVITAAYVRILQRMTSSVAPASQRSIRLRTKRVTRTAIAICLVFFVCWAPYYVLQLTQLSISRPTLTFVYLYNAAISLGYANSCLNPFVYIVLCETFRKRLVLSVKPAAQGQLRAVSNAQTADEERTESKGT

SMILES	class
CC(=O)OC(C(=O)N[C@H]1CC[C@@H](Nc2cc(N(C)C)nc(C)n2)CC1)c1ccccc1 (relative stereo) [compound 197]	3 (Class 3: The value of percent of control at 10^−7 M was more than 60% or the value of IC50 was more than 200 nM.)
Cc1nc(N[C@H]2CC[C@@H](NC(=O)[C@@H]3CCCN3S(=O)(=O)c3ccc(C(C)(C)C)cc3)CC2)cc(N(C)C)n1 (relative stereo) [compound 277]	3 (Class 3: The value of percent of control at 10^−7 M was more than 60% or the value of IC50 was more than 200 nM.)
Cc1nc(N[C@H]2CC[C@@H](NC(=O)CC(C)S(=O)(=O)c3ccc(Cl)cc3)CC2)cc(N(C)C)n1 (relative stereo) [compound 281]	3 (Class 3: The value of percent of control at 10^−7 M was more than 60% or the value of IC50 was more than 200 nM.)
Cc1nc(N[C@H]2CC[C@@H](NC(=O)C3CC(=O)N(Cc4cccs4)C3)CC2)cc(N(C)C)n1 (relative stereo) [compound 282]	3 (Class 3: The value of percent of control at 10^−7 M was more than 60% or the value of IC50 was more than 200 nM.)
Cc1nc(N[C@H]2CC[C@@H](NC(=O)C(C)c3ccc(-c4ccccc4)c(F)c3)CC2)cc(N(C)C)n1 (relative stereo) [compound 284]	3 (Class 3: The value of percent of control at 10^−7 M was more than 60% or the value of IC50 was more than 200 nM.)
Cc1nc(N[C@H]2CC[C@@H](NC(=O)C(C)c3ccc(N4Cc5ccccc5C4=O)cc3)CC2)cc(N(C)C)n1 (relative stereo) [compound 286]	3 (Class 3: The value of percent of control at 10^−7 M was more than 60% or the value of IC50 was more than 200 nM.)
COc1ccc2c(c1)C(CC(=O)N[C@H]1CC[C@@H](Nc3cc(N(C)C)nc(C)n3)CC1)CC2=O (relative stereo) [compound 290]	3 (Class 3: The value of percent of control at 10^−7 M was more than 60% or the value of IC50 was more than 200 nM.)
Cc1nc(N[C@H]2CC[C@@H](NC(=O)C3CC(=O)c4ccccc43)CC2)cc(N(C)C)n1 (relative stereo) [compound 299]	3 (Class 3: The value of percent of control at 10^−7 M was more than 60% or the value of IC50 was more than 200 nM.)
Cc1ccc(C(=O)CC(Sc2ccc(Cl)cc2)C(=O)N[C@H]2CC[C@@H](Nc3cc(N(C)C)nc(C)n3)CC2)cc1 (relative stereo) [compound 310]	3 (Class 3: The value of percent of control at 10^−7 M was more than 60% or the value of IC50 was more than 200 nM.)
Cc1ccc(SC(CC(=O)c2ccc(F)cc2)C(=O)N[C@H]2CC[C@@H](Nc3cc(N(C)C)nc(C)n3)CC2)cc1 (relative stereo) [compound 311]	3 (Class 3: The value of percent of control at 10^−7 M was more than 60% or the value of IC50 was more than 200 nM.)
Cc1nc(N[C@H]2CC[C@@H](NC(=O)C(C)c3ccc(C(=O)c4cccs4)cc3)CC2)cc(N(C)C)n1 (relative stereo) [compound 312]	3 (Class 3: The value of percent of control at 10^−7 M was more than 60% or the value of IC50 was more than 200 nM.)
Cc1nc(N[C@H]2CC[C@@H](NC(=O)CC(C)C(F)(F)F)CC2)cc(N(C)C)n1 (relative stereo) [compound 314]	3 (Class 3: The value of percent of control at 10^−7 M was more than 60% or the value of IC50 was more than 200 nM.)
Cc1nc(N[C@H]2CC[C@@H](NC(=O)C(C(=O)OCc3ccccc3)c3ccccc3)CC2)cc(N(C)C)n1 (relative stereo) [compound 321]	3 (Class 3: The value of percent of control at 10^−7 M was more than 60% or the value of IC50 was more than 200 nM.)
COC(=O)[C@H](Cc1ccccc1)NC(=O)N[C@H]1CC[C@@H](Nc2cc(N(C)C)nc(C)n2)CC1 (relative stereo) [compound 411]	3 (Class 3: The value of percent of control at 10^−7 M was more than 60% or the value of IC50 was more than 200 nM.)
Cc1nc(N[C@H]2CC[C@@H](NC(=O)NC(C)c3cccc4ccccc34)CC2)cc(N(C)C)n1 (relative stereo) [compound 415, N-(cis-4-{[6-(dimethylamino)-2-methylpyrimidin-4-yl]amino}cyclohexyl)-N′-[1-(1-naphthyl)ethyl]urea]	1 (Class 1: The value of percent of control at 10^−7 M was less than 40% or the value of IC50 was less than 50 nM.)
Cc1nc(N[C@H]2CC[C@@H](NC(=O)c3ccc4c(c3)C(=O)c3ccccc3C4=O)CC2)cc(N(C)C)n1 [compound 198]	3 (Class 3: The value of percent of control at 10^−7 M was more than 60% or the value of IC50 was more than 200 nM.)
CC(=O)N[C@H]1CC[C@@H](Nc2cc(N(C)C)nc(C)n2)CC1 [compound 199]	3 (Class 3: The value of percent of control at 10^−7 M was more than 60% or the value of IC50 was more than 200 nM.)
Cc1nc(N[C@H]2CC[C@@H](NC(=O)c3ccccc3)CC2)cc(N(C)C)n1 [compound 200, N-(cis-4-{[6-(dimethylamino)-2-methylpyrimidin-4-yl]amino}cyclohexyl)benzamide]	2 (Class 2: The value of percent of control at 10^−7 M was from 40% to 60% or the value of IC50 was from 50 nM to 200 nM.)
Cc1nc(N[C@H]2CC[C@@H](NC(=O)c3ccc(-c4ccccc4)cc3)CC2)cc(N(C)C)n1 [compound 201]	3 (Class 3: The value of percent of control at 10^−7 M was more than 60% or the value of IC50 was more than 200 nM.)
Cc1nc(N[C@H]2CC[C@@H](NC(=O)c3ccc(C(C)(C)C)cc3)CC2)cc(N(C)C)n1 [compound 202]	3 (Class 3: The value of percent of control at 10^−7 M was more than 60% or the value of IC50 was more than 200 nM.)
Cc1nc(N[C@H]2CC[C@@H](NC(=O)c3cc4ccccc4s3)CC2)cc(N(C)C)n1 [compound 203]	3 (Class 3: The value of percent of control at 10^−7 M was more than 60% or the value of IC50 was more than 200 nM.)
Cc1nc(N[C@H]2CC[C@@H](NC(=O)Cc3ccc(OCc4ccccc4)cc3)CC2)cc(N(C)C)n1 [compound 204]	3 (Class 3: The value of percent of control at 10^−7 M was more than 60% or the value of IC50 was more than 200 nM.)
Cc1nc(N[C@H]2CC[C@@H](NC(=O)c3ccc(Br)cc3)CC2)cc(N(C)C)n1 [compound 205]	3 (Class 3: The value of percent of control at 10^−7 M was more than 60% or the value of IC50 was more than 200 nM.)
Cc1nc(N[C@H]2CC[C@@H](NC(=O)COCc3ccccc3)CC2)cc(N(C)C)n1 [compound 206]	3 (Class 3: The value of percent of control at 10^−7 M was more than 60% or the value of IC50 was more than 200 nM.)
Cc1nc(N[C@H]2CC[C@@H](NC(=O)c3ccc4nonc4c3)CC2)cc(N(C)C)n1 [compound 207, N-(cis-4-{[6-(dimethylamino)-2-methylpyrimidin-4-y]amino}cyclohexyl)-2,1,3-benzoxadiazole-5-carboxamide]	3 (Class 3: The value of percent of control at 10^−7 M was more than 60% or the value of IC50 was more than 200 nM.)
Cc1nc(N[C@H]2CC[C@@H](NC(=O)c3ccc(Cl)cc3)CC2)cc(N(C)C)n1 [compound 208, 4-chloro-N-(cis-4-{[6-(dimethylamino)-2-methylpyrimidin-4-yl]amino}cyclohexyl)benzamide]	2 (Class 2: The value of percent of control at 10^−7 M was from 40% to 60% or the value of IC50 was from 50 nM to 200 nM.)
Cc1nc(N[C@H]2CC[C@@H](NC(=O)COc3ccc(Cl)cc3)CC2)cc(N(C)C)n1 [compound 209]	3 (Class 3: The value of percent of control at 10^−7 M was more than 60% or the value of IC50 was more than 200 nM.)
